# Calls of active or inactive are those of the source.
# Assays:
# [1] = HEK-293T cell viability reduction – luminescence, B-cell screen hits, cytotoxicity control for BCR NF-kB inhibitor project, dose response (AID 489021); format: functional, cell-based;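 note: HEK-293T cells carrying an NF-kB luciferase reporter; cells exposed to compound for about 14 hours before viability readout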
# [2] = biological target: T1, Replicative DNA helicase DnaB (Mycobacterium tuberculosis, UniProt P9WMR3); assay: DnaB intein splicing inhibitors, dose response, biochemical, cell-free fluorescence (AID 449749); format: functional
# T1 sequence (P9WMR3 whole entry): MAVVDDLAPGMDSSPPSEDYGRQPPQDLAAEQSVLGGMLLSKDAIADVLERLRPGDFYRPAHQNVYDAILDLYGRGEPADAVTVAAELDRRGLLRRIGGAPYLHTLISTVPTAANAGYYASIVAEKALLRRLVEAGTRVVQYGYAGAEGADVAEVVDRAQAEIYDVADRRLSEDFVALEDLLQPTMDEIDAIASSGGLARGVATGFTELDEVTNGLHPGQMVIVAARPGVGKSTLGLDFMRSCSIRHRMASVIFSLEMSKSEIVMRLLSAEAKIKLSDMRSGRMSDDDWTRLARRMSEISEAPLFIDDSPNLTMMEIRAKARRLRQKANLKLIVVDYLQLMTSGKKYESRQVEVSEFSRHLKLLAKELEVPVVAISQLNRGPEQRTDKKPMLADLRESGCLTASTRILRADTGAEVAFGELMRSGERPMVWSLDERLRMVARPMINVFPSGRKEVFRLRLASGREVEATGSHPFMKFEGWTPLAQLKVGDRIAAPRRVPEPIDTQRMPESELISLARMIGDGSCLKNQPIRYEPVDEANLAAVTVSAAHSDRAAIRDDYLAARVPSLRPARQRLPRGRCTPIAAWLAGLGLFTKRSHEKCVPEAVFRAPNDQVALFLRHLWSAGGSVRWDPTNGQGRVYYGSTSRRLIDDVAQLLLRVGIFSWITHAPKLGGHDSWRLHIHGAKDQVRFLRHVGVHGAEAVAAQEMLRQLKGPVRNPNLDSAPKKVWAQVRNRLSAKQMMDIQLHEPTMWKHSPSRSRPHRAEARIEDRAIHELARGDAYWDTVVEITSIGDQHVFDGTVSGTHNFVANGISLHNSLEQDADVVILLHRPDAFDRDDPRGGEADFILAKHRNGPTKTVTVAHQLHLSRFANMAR
# Protein RecA = biological target: T2, Protein RecA (Mycobacterium tuberculosis, UniProt P9WHJ3); assay: Fluorescence Cell-Free Homogeneous Dose Retest to Identify Inhibitors of RecA-Intein Splicing Activity. [Related pubchem assays (depositor defined):AID2097, AID2223, AID489010, AID492950]; format: functional
# T2 sequence (P9WHJ3 whole entry): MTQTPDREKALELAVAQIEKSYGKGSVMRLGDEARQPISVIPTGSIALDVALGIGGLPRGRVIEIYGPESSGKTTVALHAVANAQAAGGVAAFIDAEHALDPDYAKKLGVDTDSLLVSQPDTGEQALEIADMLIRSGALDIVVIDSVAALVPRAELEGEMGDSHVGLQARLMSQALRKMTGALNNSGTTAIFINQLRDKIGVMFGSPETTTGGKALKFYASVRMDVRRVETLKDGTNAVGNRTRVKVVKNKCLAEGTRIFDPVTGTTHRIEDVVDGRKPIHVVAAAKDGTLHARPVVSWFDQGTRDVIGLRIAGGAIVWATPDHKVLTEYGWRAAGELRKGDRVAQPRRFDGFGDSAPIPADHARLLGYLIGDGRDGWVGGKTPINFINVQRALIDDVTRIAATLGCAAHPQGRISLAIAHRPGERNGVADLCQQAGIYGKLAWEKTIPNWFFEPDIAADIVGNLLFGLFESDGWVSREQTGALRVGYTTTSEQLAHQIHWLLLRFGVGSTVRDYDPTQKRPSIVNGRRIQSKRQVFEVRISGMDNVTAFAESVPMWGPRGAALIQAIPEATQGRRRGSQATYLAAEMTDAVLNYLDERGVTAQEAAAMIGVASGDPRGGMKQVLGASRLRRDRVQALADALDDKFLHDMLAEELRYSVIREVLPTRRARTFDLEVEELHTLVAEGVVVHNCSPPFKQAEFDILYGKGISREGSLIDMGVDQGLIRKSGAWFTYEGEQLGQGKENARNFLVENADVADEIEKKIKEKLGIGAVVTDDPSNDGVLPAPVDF
# Estrogen receptor beta [3] = biological target: T3, Estrogen receptor beta (Homo sapiens, UniProt Q92731); assay: blockers of SRC-3 recruitment to ERβ – biochemical, ELISA, streptavidin-HRP readout, orthogonal assay, confirmation (AID 1060)
# T3 sequence (Q92731 whole entry): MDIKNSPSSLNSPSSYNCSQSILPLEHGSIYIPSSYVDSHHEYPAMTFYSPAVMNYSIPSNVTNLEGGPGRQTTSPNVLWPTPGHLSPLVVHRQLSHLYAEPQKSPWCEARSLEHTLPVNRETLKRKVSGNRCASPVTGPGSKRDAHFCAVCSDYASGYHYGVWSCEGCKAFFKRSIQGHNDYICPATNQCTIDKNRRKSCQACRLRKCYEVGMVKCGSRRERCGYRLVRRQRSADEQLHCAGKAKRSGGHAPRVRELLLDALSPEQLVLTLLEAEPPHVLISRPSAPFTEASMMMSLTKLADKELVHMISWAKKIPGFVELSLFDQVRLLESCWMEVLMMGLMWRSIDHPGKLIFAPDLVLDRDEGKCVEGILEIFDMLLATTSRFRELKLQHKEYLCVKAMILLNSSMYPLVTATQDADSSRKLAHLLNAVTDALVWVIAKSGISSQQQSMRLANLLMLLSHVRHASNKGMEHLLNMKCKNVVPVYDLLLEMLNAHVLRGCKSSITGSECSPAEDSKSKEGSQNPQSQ
# Estrogen receptor beta [4] = biological target: T3, Estrogen receptor beta
# Leucine aminopeptidase = biological target: T4, Leucine aminopeptidase (Plasmodium falciparum 3D7, UniProt Q8IL11); assay: P. falciparum M17LAP inhibitors, primary screen, biochemical, fluorogenic H-Leu-NHMec substrate, 1536-well (AID 1619); format: functional
# T4 sequence (Q8IL11 whole entry): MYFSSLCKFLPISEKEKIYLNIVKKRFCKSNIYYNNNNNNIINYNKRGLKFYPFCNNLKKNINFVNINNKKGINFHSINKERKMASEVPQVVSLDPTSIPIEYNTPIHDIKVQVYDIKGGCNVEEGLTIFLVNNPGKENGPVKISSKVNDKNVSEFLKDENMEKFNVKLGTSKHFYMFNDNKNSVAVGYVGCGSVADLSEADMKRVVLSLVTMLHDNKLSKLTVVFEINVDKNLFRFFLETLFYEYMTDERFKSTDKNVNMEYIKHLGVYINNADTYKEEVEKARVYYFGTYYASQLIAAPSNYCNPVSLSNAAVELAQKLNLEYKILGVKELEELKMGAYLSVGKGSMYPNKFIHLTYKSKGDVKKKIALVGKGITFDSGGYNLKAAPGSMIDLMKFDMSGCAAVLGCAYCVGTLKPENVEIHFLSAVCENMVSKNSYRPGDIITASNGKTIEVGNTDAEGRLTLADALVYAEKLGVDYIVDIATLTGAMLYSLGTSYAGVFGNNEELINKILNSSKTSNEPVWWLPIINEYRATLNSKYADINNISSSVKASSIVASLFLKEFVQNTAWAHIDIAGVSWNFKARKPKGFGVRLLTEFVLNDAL
# [5] = blockers of HIV-1 envelope-mediated cell-cell fusion – cherry-pick, dose response (AID 652057); format: functional, cell-based
# [6] = blockers of HIV-1 ZM109 envelope-driven cell-cell fusion – HeLa effector, CEM target cells, luciferase, cherry-pick, dose response (AID 652058); format: functional, cell-based;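 note: luciferase signal from HIV-1 Env mediated cell-cell fusion of effector and target cells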
# [7] = HIV-1 AD8 envelope cell-cell fusion blockers – cherry-pick, dose response (AID 652062); format: functional, cell-based;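 note: luciferase signal from cell-cell fusion driven by HIV-1 clade B AD8 Env; potency is for inhibitors of fusion seen as a drop in luminescence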
# [8] = system: Streptococcus sp. 'group A'; assay: Streptococcus pyogenes SK(-)GAS viability under kanamycin – luminescence, BacTiterGlo, confirmation, counter-screen for streptokinase expression inhibitor project, dose response (AID 1900); format: functional, organism-based
# Aminopeptidase N = biological target: T5, Aminopeptidase N (Plasmodium falciparum FcB1/Columbia, UniProt O96935); assay: malaria alanyl aminopeptidase activity blockers – biochemical, fluorogenic H-Leu-NHMec substrate, 1536-well (AID 1445); design: species or system Plasmodium falciparum 3D7, 3D7
# T5 sequence (O96935 whole entry): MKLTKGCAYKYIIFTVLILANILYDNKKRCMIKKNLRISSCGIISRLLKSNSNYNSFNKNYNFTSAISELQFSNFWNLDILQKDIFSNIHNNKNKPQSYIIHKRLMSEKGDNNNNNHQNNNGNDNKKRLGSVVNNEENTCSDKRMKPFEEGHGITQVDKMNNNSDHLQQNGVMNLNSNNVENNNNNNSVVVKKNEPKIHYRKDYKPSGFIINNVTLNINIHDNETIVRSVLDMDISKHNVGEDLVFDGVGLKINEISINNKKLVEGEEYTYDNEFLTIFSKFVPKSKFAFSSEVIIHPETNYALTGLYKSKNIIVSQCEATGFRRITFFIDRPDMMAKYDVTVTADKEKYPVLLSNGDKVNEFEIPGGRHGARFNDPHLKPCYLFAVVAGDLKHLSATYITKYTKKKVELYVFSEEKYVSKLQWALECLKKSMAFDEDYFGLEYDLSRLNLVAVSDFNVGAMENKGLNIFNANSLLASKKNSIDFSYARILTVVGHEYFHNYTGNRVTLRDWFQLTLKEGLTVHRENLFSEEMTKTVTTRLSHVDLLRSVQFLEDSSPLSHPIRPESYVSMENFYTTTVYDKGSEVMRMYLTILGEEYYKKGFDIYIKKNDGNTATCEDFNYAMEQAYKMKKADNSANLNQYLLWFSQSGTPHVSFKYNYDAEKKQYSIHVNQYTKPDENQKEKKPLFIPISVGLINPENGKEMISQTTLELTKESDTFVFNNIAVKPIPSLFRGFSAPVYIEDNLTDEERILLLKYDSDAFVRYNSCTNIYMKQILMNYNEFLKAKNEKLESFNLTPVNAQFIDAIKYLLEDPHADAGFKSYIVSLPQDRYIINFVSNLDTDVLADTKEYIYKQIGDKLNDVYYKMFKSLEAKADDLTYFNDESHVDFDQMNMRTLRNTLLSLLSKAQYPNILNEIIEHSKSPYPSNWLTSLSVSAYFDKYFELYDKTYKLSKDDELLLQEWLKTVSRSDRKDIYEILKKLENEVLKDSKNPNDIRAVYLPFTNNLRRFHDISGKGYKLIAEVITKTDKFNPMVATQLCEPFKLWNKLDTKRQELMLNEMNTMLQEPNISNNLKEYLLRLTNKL
# Streptococcus = assay: GAS UMAA2166 growth inhibition – luminescence, BacTiterGlo, counter-screen for streptokinase expression inhibitor project, dose response (AID 1915); format: functional, organism-based;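 note: potency for reduction of bacterial viability or growth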
# [9] = biological target: T6, Mannose-6-phosphate isomerase (Homo sapiens, UniProt P34949); assay: MPI inhibition at elevated mannose 6-phosphate – biochemical, fluorescence intensity, high mannose 6-phosphate, primary screen (AID 1220)
# T6 sequence (P34949 whole entry): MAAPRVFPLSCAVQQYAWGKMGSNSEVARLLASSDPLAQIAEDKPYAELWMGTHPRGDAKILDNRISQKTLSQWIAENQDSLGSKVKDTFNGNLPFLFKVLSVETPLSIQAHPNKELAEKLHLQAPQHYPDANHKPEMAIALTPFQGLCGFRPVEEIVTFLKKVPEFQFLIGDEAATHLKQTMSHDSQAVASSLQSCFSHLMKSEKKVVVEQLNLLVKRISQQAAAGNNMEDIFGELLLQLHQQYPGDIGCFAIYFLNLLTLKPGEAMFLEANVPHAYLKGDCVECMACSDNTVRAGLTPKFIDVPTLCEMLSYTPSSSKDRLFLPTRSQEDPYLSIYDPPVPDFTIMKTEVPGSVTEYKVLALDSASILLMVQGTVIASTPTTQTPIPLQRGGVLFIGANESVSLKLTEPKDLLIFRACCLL
compound,measurement,setting,value
Cc1c(CCC(=O)N2CCC(C(=O)O)(c3ccccc3)CC2)c(=O)oc2cc3oc4c(c3cc12)CCCC4,IC50,[1],> 80 µM (inactive)
COc1cccc(-c2[nH]nc3c2C(c2ccoc2)C(C#N)=C(N)O3)c1 (configuration not stated),AC50,[2],8.72 µM (active)
same,EC50,Protein RecA,1.07 µM (active)
same,IC50,Estrogen receptor beta [3],> 50 µM (not active)
same,IC50,Estrogen receptor beta [4],20 µM (active)
same,IC50,Leucine aminopeptidase,76.8 µM (active)
COc1ccc(/C=C2\SC(=S)N(CCC(=O)Nc3ccc(O)cc3)C2=O)cc1,IC50,[1],> 80 µM (inactive)
Cc1ccc(S(=O)(=O)N(C)C[C@@H]2Oc3cc(Br)ccc3S(=O)(=O)N([C@H](C)CO)C[C@@H]2C)cc1,AC50,[5],4.58 µM (active)
same,AC50,[6],7.1 µM (active)
same,AC50,[7],26.6 µM (active)
CCC(=O)N1NC(=C2C(=O)N(C)C(=O)N(C)C2=O)CC1c1ccccc1 (configuration not stated),EC50,[8],4.93 µM (active)
same,IC50,Aminopeptidase N,41.9 µM (active)
same,EC50,Streptococcus,8.9 µM (active)
COc1ccc2ccc3c(c2c1)N=CC1(O3)N(C)c2ccccc2C1(C)C (configuration not stated),IC50,[9],> 50 µM (not active)
same,AC50,[2],2.96 µM (active)
same,EC50,Protein RecA,36.2 µM (active)
Nc1ccc2c(c1)OC1(CCCCC1)O2,IC50,[9],> 50 µM (not active)
